Measured values from patent publication US20180099931A1 (AbbVie S.à.r.l., priority 2016, published 2018).
Read-outs that look alike come from different tables or passages of the source.

Target: T1, F508delCFTR (Homo sapiens, UniProt P13569, DEL508-508)
T1 construct: expressed in transfected cells; host or cells: CFBE41o- human lung-derived epithelial cells (CFBE4lo-F508delCFTR-HRP), doxycycline-inducible
Assay: Cell Surface Expression-Horse Radish Peroxidase (CSE-HRP) Assay;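 as to Maximum % activity (with co-corrector): co-corrector and positive control are both the same reference corrector at 2 µM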;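 as to Maximum % activity (without co-corrector): percent of the 2 µM on-plate positive control corrector response above DMSO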
Assay type: cell-based
Conditions: for Emax / Maximum % activity (with co-corrector): maximum at any tested concentration, normalized to on-plate positive control; for Emax: read-out: Maximum % activity (without co-corrector)

[1] = test compound without co-corrector
[2] = test compound without co-corrector, read-out: EC50 (without co-corrector)
[3] = with co-corrector (2 μM of 3-[(2R,4R)-4-({[1-(2,2-difluoro-1,3-benzodioxol-5-yl)cyclopropyl]carbonyl}amino)-7-methoxy-3,4-dihydro-2H-chromen-2-yl]benzoic acid)
[4] = with co-corrector (2 μM of 3-[(2R,4R)-4-({[1-(2,2-difluoro-1,3-benzodioxol-5-yl)cyclopropyl]carbonyl}amino)-7-methoxy-3,4-dihydro-2H-chromen-2-yl]benzoic acid), read-out: EC50 (with co-corrector)
[5] = CSE-HRP, test compound without co-corrector, read-out: EC50 (without co-corrector)
[6] = CSE-HRP, with co-corrector (2 μM of 3-[(2R,4R)-4-({[1-(2,2-difluoro-1,3-benzodioxol-5-yl)cyclopropyl]carbonyl}amino)-7-methoxy-3,4-dihydro-2H-chromen-2-yl]benzoic acid), read-out: EC50 (with co-corrector)
[7] = CSE-HRP, with co-corrector (2 μM)

T1 sequence (P13569 with tags, fused parts or gaps DEL508-508): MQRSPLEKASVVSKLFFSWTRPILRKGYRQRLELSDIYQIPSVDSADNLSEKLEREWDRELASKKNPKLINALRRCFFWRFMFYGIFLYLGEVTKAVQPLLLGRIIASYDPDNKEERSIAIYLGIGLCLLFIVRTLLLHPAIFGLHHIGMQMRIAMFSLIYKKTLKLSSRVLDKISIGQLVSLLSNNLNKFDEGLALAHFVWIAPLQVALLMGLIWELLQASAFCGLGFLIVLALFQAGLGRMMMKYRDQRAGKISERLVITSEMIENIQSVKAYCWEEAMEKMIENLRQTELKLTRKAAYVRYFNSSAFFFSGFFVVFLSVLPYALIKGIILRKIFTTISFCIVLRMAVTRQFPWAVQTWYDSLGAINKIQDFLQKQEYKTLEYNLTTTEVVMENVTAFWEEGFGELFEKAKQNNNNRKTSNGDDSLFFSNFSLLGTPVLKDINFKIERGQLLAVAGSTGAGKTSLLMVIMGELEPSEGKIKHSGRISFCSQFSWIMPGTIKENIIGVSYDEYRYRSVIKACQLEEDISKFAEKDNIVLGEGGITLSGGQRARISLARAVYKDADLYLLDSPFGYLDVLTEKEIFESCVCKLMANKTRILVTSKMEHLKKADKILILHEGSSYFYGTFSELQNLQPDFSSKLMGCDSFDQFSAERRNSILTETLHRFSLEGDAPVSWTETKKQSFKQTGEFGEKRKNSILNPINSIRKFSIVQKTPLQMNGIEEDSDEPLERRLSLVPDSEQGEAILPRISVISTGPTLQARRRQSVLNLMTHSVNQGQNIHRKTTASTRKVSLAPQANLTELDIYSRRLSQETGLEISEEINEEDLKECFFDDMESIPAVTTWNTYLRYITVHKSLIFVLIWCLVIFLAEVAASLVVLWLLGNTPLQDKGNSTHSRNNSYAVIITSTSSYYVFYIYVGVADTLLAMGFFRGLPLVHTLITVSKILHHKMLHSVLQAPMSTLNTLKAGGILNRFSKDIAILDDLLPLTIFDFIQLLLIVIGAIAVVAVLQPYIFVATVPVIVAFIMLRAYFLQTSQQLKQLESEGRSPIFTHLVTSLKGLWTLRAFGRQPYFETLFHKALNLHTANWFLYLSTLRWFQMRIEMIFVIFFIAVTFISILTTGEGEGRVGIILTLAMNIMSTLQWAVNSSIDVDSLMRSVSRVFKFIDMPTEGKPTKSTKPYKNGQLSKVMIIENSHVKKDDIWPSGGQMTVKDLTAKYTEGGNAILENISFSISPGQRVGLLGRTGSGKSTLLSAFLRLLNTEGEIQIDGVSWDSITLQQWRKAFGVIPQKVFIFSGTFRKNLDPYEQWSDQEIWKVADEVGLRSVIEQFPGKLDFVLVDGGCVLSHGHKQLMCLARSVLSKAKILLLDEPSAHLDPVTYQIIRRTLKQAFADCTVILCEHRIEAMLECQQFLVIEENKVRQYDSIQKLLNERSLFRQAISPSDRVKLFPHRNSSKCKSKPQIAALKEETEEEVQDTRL

Emax [1] [%]	EC50 [2] [µM]	Maximum % activity (with co-corrector) [3]	EC50 [4] [µM]	Maximum % activity (with co-corrector) (with co-corrector (2 μM))	Emax (without co-corrector) [%]	EC50 [5] [µM]	EC50 [6] [µM]	Maximum % activity (with co-corrector) [7]	Emax (CSE-HRP, without co-corrector) [%]	Compound
> 200	1 to 10	+++ (≥350)	1 to 10							COc1cc(C(F)(F)F)ccc1CN[C@H]1[C@H](C(C)(C)C)[C@@H](C(=O)O)N(C(=O)[C@H]2CCC[C@H](OC)C2)[C@H]1c1ccccc1 [II-571]
< 100	> 10	+ (<150)	> 10							CC(C)(C)[C@@H]1[C@@H](Nc2cc(C(F)(F)F)cc(=O)[nH]2)[C@@H](c2ccccc2)N(C(=O)C2CCCCC2)[C@H]1C(=O)O (racemic) [III-23]
< 100	> 10	++ (≥150 and <350)	1 to 10							Cc1cc(C(F)(F)F)cc(N[C@@H]2[C@@H](C(C)(C)C)[C@H](C(=O)NS(C)(=O)=O)N(C(=O)C3CCCCC3)[C@@H]2c2ccccc2)n1 (racemic) [III-56]
< 100	> 10	++ (≥150 and <350)	1 to 10							CC(C)(C)[C@@H]1[C@@H](NCc2cc(C(F)(F)F)cnc2OCCO)[C@@H](c2ccccc2)N(C(=O)C2CCCCC2)[C@H]1C(=O)O (racemic) [III-87]
< 100	> 10	+ (<150)	1 to 10							CO[C@H](C(=O)N1[C@H](c2cccnc2N(C)C)[C@H](Nc2cc(C(F)(F)F)cc(C)n2)[C@@H](C(C)(C)C)[C@@H]1C(=O)O)c1ccccc1 (racemic) [III-90]
	1 to 10		< 1	+++ (≥350)	> 200					COc1cc2c(cc1CN[C@H]1[C@H](C(C)(C)C)[C@@H](C(=O)O)N(C(=O)C3CCCCC3)[C@H]1c1ccccc1)CCC2 [Example I-49]
						1 to 10	1 to 10	+++ (≥350)	100 to 200	COc1ncc(C2CCC2)cc1CN[C@H]1[C@H](C(C)(C)C)[C@@H](C(=O)O)N(C(=O)[C@@H]2CCCO2)[C@H]1c1cccnc1N(C)C [Example I-281]
< 100	> 10	++ (≥150 and <350)	1 to 10							COc1cc(Cl)ccc1CN[C@@H]1[C@@H](C)[C@H](C(=O)O)N(C(=O)N(C(C)C)C(C)C)[C@@H]1c1ccccc1 (racemic) [III-39]
	< 1		< 1	+++ (≥350)	> 200					COc1ccc(C23CC(C2)C3)cc1CN[C@H]1[C@H](C(C)(C)C)[C@@H](C(=O)O)N(C(=O)[C@@H]2CCCC(F)(F)C2)[C@H]1c1ccccc1 [Example 67, (2S,3S,4S,5S)-4-({[5-(bicyclo[1.1.1]pentan-1-yl)-2-methoxyphenyl]methyl}amino)-3-tert-butyl-1-[(1R)-3,3-difluorocyclohexane-1-carbonyl]-5-phenylpyrrolidine-2-carboxylic acid]
						1 to 10	1 to 10	+++ (≥350)	< 100	COc1ccc(C(F)(F)F)cc1CN[C@@H]1[C@@H](C(C)(C)C)[C@H](C(=O)O)N(C(=O)C2CCC(F)(F)CC2)[C@@H]1c1ccccc1 (racemic) [II-68]
	1 to 10		1 to 10	+++ (≥350)	100 to 200					COc1ncc(C2CCC2)cc1CN[C@H]1[C@H](C(C)(C)C)[C@@H](C(=O)O)N(C(=O)[C@@H]2CCCO2)[C@H]1c1ccccc1Cl [Example 103, (2S,3S,4S,5S)-3-tert-butyl-5-(2-chlorophenyl)-4-{[(5-cyclobutyl-2-methoxypyridin-3-yl)methyl]amino}-1-[(2S)-oxolane-2-carbonyl]pyrrolidine-2-carboxylic acid]
	1 to 10		1 to 10	+++ (≥350)	> 200					COc1ccc(C(C)(C)C)cc1CN[C@H]1[C@H](C(C)(C)C)[C@@H](C(=O)O)N(C(=O)[C@H](C)[C@H]2CCCCO2)[C@H]1c1ccccc1 (relative stereo) [Example I-196]
						1 to 10	1 to 10	+++ (≥350)	< 100	COc1ccc(C(C)(C)C)cc1CN[C@H]1[C@H](C(C)(C)C)[C@@H](C(=O)O)N(C(=O)[C@@]2(C)COc3cc4c(cc32)OC(F)(F)O4)[C@H]1c1cccnc1OC [Example I-254]
100 to 200	1 to 10		< 1	+++ (≥350)						COc1cc2c(cc1CN[C@H]1[C@H](C(C)(C)C)[C@@H](C(=O)O)N(C(=O)OC(C)C)[C@H]1c1ccccc1)C(C)(C)CCC2(C)C [III-227]
	< 1		< 1	+++ (≥350)	> 200					COc1ccc(C(C)(C)C)cc1CN[C@H]1[C@H](C(C)(C)C)[C@@H](C(=O)O)N(C(=O)C2CCCCC2)[C@H]1c1ccc(F)cc1 [Example I-112]
						1 to 10	1 to 10	+++ (≥350)	100 to 200	COc1cc(C(F)(F)F)ccc1CN[C@@H]1[C@@H](C(C)(C)OC)[C@H](C(=O)O)N(C(=O)C2CCCCC2)[C@@H]1c1ccccc1 (racemic) [II-88]
100 to 200	1 to 10	+++ (≥350)	1 to 10							COc1ncc(C2CCC2)cc1CN[C@H]1[C@H](C(C)(C)C)[C@@H](C(=O)O)N(C(=O)C2CCc3cc(F)ccc3O2)[C@H]1c1ccccc1 (stereo partly drawn) [II-476]
	< 1		< 1	+++ (≥350)	> 200					COc1ccc(C(C)(C)C)cc1CN[C@H]1[C@H](C(C)(C)C)[C@@H](C(=O)O)N(C(=O)C2Cc3ccccc3O2)[C@H]1c1ccccc1 (single isomer, unassigned) [Example 28, (2S,3S,4S,5S)-3-tert-butyl-4-{[(5-tert-butyl-2-methoxyphenyl)methyl]amino}-1-[(2S*)-2,3-dihydro-1-benzofuran-2-carbonyl]-5-phenylpyrrolidine-2-carboxylic acid]
100 to 200	1 to 10	+++ (≥350)	< 1							COc1nc(C(C)(C)C)ccc1CN[C@H]1[C@H](C(C)(C)C)[C@@H](C(=O)O)N(C(=O)OC(C)C)[C@H]1c1cccnc1OC(C)C [II-557]
	1 to 10		1 to 10	+++ (≥350)	100 to 200					COc1cc(C(F)(F)F)ccc1CN[C@H]1[C@H](C(C)(C)C)[C@@H](C(=O)O)N(C(=O)C2CCCCC2)[C@H]1c1cccnc1N(C)C [Example I-44]
< 100	1 to 10	+++ (≥350)	1 to 10							COc1ccc(C(F)(F)F)cc1CN[C@H]1[C@H](C(C)(C)C)[C@@H](C(=O)O)N(C(=O)C2(C)CCCOC2)[C@H]1c1ccccc1N(C)C (mixture of isomers) [III-77]
< 100	1 to 10	++ (≥150 and <350)	1 to 10							COc1ccc(C(C)(C)C)cc1CN[C@H]1[C@H](C(C)(C)C)[C@@H](C(=O)O)N(C(=O)C2(c3cccc(Cl)c3)COC2)[C@H]1c1ccccc1 [II-497]
> 200	1 to 10	+++ (≥350)	< 1							COc1ncc(Br)cc1CN[C@H]1[C@H](C(C)(C)C)[C@@H](C(=O)O)N(C(=O)[C@@H]2CCCO2)[C@H]1c1ccccc1C(C)C [II-594]
	1 to 10		< 1	+++ (≥350)	> 200					COc1ncc(C2CCC2)cc1CN[C@H]1[C@H](C(C)(C)C)[C@@H](C(=O)O)N(C(=O)[C@@H]2CCCO2)[C@H]1c1ccccc1C(C)C [Example 89, (2S,3S,4S,5S)-3-tert-butyl-4-{[(5-cyclobutyl-2-methoxypyridin-3-yl)methyl]amino}-1-[(2S)-oxolane-2-carbonyl]-5-[2-(propan-2-yl)phenyl]pyrrolidine-2-carboxylic acid]
						< 1	1 to 10	+++ (≥350)	< 100	COc1ccc(-c2ccc(C#N)cc2)cc1CN[C@H]1[C@H](C(C)(C)C)[C@@H](C(=O)O)N(C(=O)C2CCCCC2)[C@H]1c1ccccc1 [II-289]
100 to 200	< 1	+++ (≥350)	< 1							COc1ncc(-c2ccccc2)cc1CN[C@H]1[C@H](C(C)(C)C)[C@@H](C(=O)O)N(C(=O)C2CCCCC2)[C@H]1c1ccccc1F [II-423]
	1 to 10		1 to 10	+++ (≥350)	> 200					COc1nc(C(C)(C)C)ccc1CN[C@H]1[C@H](C(C)(C)C)[C@@H](C(=O)O)N(C(=O)C2CCCC(F)(F)C2)[C@H]1c1ccccc1 (stereo partly drawn) [Example I-180]
